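Step 1: Grow cells in 96-well plates. Step 2: Expose to compound for 48 hours at 5 concentrations. Step 3: Interpolate endpoints linearly; if unreached, use highest concentration. Definition used: TGI = concentration required for complete inhibition of growth.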
Legend:
Assay in all cases: NCI tumour cell line growth inhibition, 48 h
XF 498 CNS = tested on: XF 498 CNS
A549 NSCLC = tested on: A549 NSCLC
UACC-62 melanoma = tested on: UACC-62 melanoma
UO-31 renal = tested on: UO-31 renal
DMS 114 small cell lung = tested on: DMS 114 small cell lung
NCI-H522 lung = tested on: NCI-H522 lung
RXF 393 renal = tested on: RXF 393 renal
NCI-H226 lung = tested on: NCI-H226 lung
NCI-H460 lung = tested on: NCI-H460 lung
SW-620 colon = tested on: SW-620 colon
SNB-19 CNS = tested on: SNB-19 CNS
SNB-75 CNS = tested on: SNB-75 CNS
OVCAR-8 ovarian = tested on: OVCAR-8 ovarian
EKVX NSCLC = tested on: EKVX NSCLC
KM20L2 colon = tested on: KM20L2 colon
K-562 leukemia = tested on: K-562 leukemia
M14 melanoma = tested on: M14 melanoma
IGROV1 ovarian = tested on: IGROV1 ovarian
NCI-H23 lung = tested on: NCI-H23 lung
SF-268 CNS = tested on: SF-268 CNS
HCC-2998 colon = tested on: HCC-2998 colon
HT29 colon = tested on: HT29 colon
SK-MEL-5 melanoma = tested on: SK-MEL-5 melanoma
HL-60(TB) leukemia = tested on: HL-60(TB) leukemia
OVCAR-4 ovarian = tested on: OVCAR-4 ovarian
HCT-116 colon = tested on: HCT-116 colon
LXFL 529 NSCLC = tested on: LXFL 529 NSCLC
M19-MEL melanoma = tested on: M19-MEL melanoma
786-0 renal = tested on: 786-0 renal
OVCAR-5 ovarian = tested on: OVCAR-5 ovarian
DMS 273 small cell lung = tested on: DMS 273 small cell lung
MOLT-4 leukemia = tested on: MOLT-4 leukemia
LOX IMVI melanoma = tested on: LOX IMVI melanoma
KM12 colon = tested on: KM12 colon
UACC-257 melanoma = tested on: UACC-257 melanoma
CAKI-1 renal = tested on: CAKI-1 renal
SN12C renal = tested on: SN12C renal
SF-295 CNS = tested on: SF-295 CNS
HOP-92 NSCLC = tested on: HOP-92 NSCLC
ACHN renal = tested on: ACHN renal
TK-10 renal = tested on: TK-10 renal
SF-539 CNS = tested on: SF-539 CNS
RPMI-8226 leukemia = tested on: RPMI-8226 leukemia
A498 renal = tested on: A498 renal
DLD-1 colon = tested on: DLD-1 colon
SNB-78 CNS = tested on: SNB-78 CNS
HOP-62 NSCLC = tested on: HOP-62 NSCLC
COLO 205 colon = tested on: COLO 205 colon
MALME-3M melanoma = tested on: MALME-3M melanoma
HCT-15 colon = tested on: HCT-15 colon
U251 CNS = tested on: U251 CNS
OVCAR-3 ovarian = tested on: OVCAR-3 ovarian
SK-MEL-2 melanoma = tested on: SK-MEL-2 melanoma
SK-MEL-28 melanoma = tested on: SK-MEL-28 melanoma
CCRF-CEM leukemia = tested on: CCRF-CEM leukemia
MDA-N = tested on: MDA-N
MCF7 breast = tested on: MCF7 breast
DU-145 prostate = tested on: DU-145 prostate
T-47D breast = tested on: T-47D breast
MDA-MB-435 = tested on: MDA-MB-435
PC-3 prostate = tested on: PC-3 prostate
SK-OV-3 ovarian = tested on: SK-OV-3 ovarian
BT-549 breast = tested on: BT-549 breast
HOP-18 NSCLC = tested on: HOP-18 NSCLC
MDA-MB-231 breast = tested on: MDA-MB-231 breast
SR leukemia = tested on: SR leukemia
HS 578T breast = tested on: HS 578T breast

## O=C/C1=C/C2=Cc3ccccc3C=C(/C=C(/C=O)C1)C2
XF 498 CNS
  TGI: > 100 µM
A549 NSCLC
  TGI: > 100 µM
UACC-62 melanoma
  TGI: > 100 µM
UO-31 renal
  TGI: > 100 µM
DMS 114 small cell lung
  TGI: > 100 µM
NCI-H522 lung
  TGI: > 100 µM
RXF 393 renal
  TGI: 88.6 µM
NCI-H226 lung
  TGI: > 100 µM
NCI-H460 lung
  TGI: > 100 µM
SW-620 colon
  TGI: > 100 µM
SNB-19 CNS
  TGI: > 100 µM
SNB-75 CNS
  TGI: 80 µM
OVCAR-8 ovarian
  TGI: > 100 µM
EKVX NSCLC
  TGI: > 100 µM
KM20L2 colon
  TGI: > 100 µM
K-562 leukemia
  TGI: > 100 µM
M14 melanoma
  TGI: > 100 µM
IGROV1 ovarian
  TGI: > 100 µM
NCI-H23 lung
  TGI: > 100 µM
SF-268 CNS
  TGI: > 100 µM
HCC-2998 colon
  TGI: > 100 µM
HT29 colon
  TGI: > 100 µM
SK-MEL-5 melanoma
  TGI: > 100 µM
HL-60(TB) leukemia
  TGI: > 100 µM
OVCAR-4 ovarian
  TGI: > 100 µM
HCT-116 colon
  TGI: 48.3 µM
LXFL 529 NSCLC
  TGI: > 100 µM
M19-MEL melanoma
  TGI: > 100 µM
786-0 renal
  TGI: > 100 µM
OVCAR-5 ovarian
  TGI: > 100 µM
DMS 273 small cell lung
  TGI: > 100 µM
MOLT-4 leukemia
  TGI: 90.9 µM
LOX IMVI melanoma
  TGI: > 100 µM
KM12 colon
  TGI: > 100 µM
UACC-257 melanoma
  TGI: > 100 µM
CAKI-1 renal
  TGI: > 100 µM
SN12C renal
  TGI: > 100 µM
SF-295 CNS
  TGI: > 100 µM
HOP-92 NSCLC
  TGI: 87.9 µM
ACHN renal
  TGI: > 100 µM
TK-10 renal
  TGI: > 100 µM
SF-539 CNS
  TGI: > 100 µM
RPMI-8226 leukemia
  TGI: > 100 µM
A498 renal
  TGI: > 100 µM
DLD-1 colon
  TGI: > 100 µM
SNB-78 CNS
  TGI: > 100 µM
HOP-62 NSCLC
  TGI: > 100 µM
COLO 205 colon
  TGI: > 100 µM
MALME-3M melanoma
  TGI: > 100 µM
HCT-15 colon
  TGI: > 100 µM
U251 CNS
  TGI: > 100 µM
OVCAR-3 ovarian
  TGI: 98.4 µM
SK-MEL-2 melanoma
  TGI: > 100 µM
SK-MEL-28 melanoma
  TGI: > 100 µM
CCRF-CEM leukemia
  TGI: 74.9 µM

## BrC(Br)=C1C(=C(Br)Br)C(Br)C1Br (stereo not drawn)
A549 NSCLC
  TGI: 3 µM
UACC-62 melanoma
  TGI: 1.91 µM
UO-31 renal
  TGI: 2.24 µM
DMS 114 small cell lung
  TGI: 0.552 µM
MDA-N
  TGI: 1.92 µM
NCI-H522 lung
  TGI: 0.299 µM
RXF 393 renal
  TGI: 0.948 µM
NCI-H226 lung
  TGI: 0.67 µM
NCI-H460 lung
  TGI: 1.35 µM
SW-620 colon
  TGI: 1 µM
SNB-19 CNS
  TGI: 15.5 µM
SNB-75 CNS
  TGI: 5.62 µM
OVCAR-8 ovarian
  TGI: 5.46 µM
EKVX NSCLC
  TGI: 4.98 µM
MCF7 breast
  TGI: 1.31 µM
KM20L2 colon
  TGI: 3.04 µM
K-562 leukemia
  TGI: 1.19 µM
M14 melanoma
  TGI: 0.592 µM
IGROV1 ovarian
  TGI: 5.68 µM
DU-145 prostate
  TGI: 0.502 µM
NCI-H23 lung
  TGI: 1.46 µM
T-47D breast
  TGI: > 100 µM
MDA-MB-435
  TGI: 2.82 µM
SF-268 CNS
  TGI: 1.51 µM
HCC-2998 colon
  TGI: 0.777 µM
PC-3 prostate
  TGI: 5.42 µM
HT29 colon
  TGI: 1.49 µM
SK-OV-3 ovarian
  TGI: 12.7 µM
SK-MEL-5 melanoma
  TGI: 2.04 µM
BT-549 breast
  TGI: 6.93 µM
OVCAR-4 ovarian
  TGI: 6.18 µM
HCT-116 colon
  TGI: 1.1 µM
LXFL 529 NSCLC
  TGI: 1.85 µM
HOP-18 NSCLC
  TGI: 9.19 µM
M19-MEL melanoma
  TGI: 1.99 µM
786-0 renal
  TGI: 0.882 µM
OVCAR-5 ovarian
  TGI: 3.27 µM
DMS 273 small cell lung
  TGI: 1.25 µM
LOX IMVI melanoma
  TGI: 1.03 µM
KM12 colon
  TGI: 2.15 µM
UACC-257 melanoma
  TGI: 5.3 µM
CAKI-1 renal
  TGI: 0.898 µM
SN12C renal
  TGI: 2.31 µM
MDA-MB-231 breast
  TGI: 3.63 µM
SF-295 CNS
  TGI: 2.32 µM
HOP-92 NSCLC
  TGI: 2.96 µM
ACHN renal
  TGI: 1.49 µM
TK-10 renal
  TGI: 1.93 µM
RPMI-8226 leukemia
  TGI: 1.14 µM
A498 renal
  TGI: 3.38 µM
DLD-1 colon
  TGI: 1.98 µM
SNB-78 CNS
  TGI: 3.54 µM
HOP-62 NSCLC
  TGI: 2.88 µM
COLO 205 colon
  TGI: 2.59 µM
MALME-3M melanoma
  TGI: 1.59 µM
HCT-15 colon
  TGI: 1.73 µM
U251 CNS
  TGI: 2.69 µM
OVCAR-3 ovarian
  TGI: 2.15 µM
SR leukemia
  TGI: 1.54 µM
SK-MEL-2 melanoma
  TGI: 7.7 µM
SK-MEL-28 melanoma
  TGI: 3.06 µM
HS 578T breast
  TGI: 23.3 µM
CCRF-CEM leukemia
  TGI: 1.6 µM
